# Data reported in patent US12227500B2, “Substituted pyrrolo[2,3-b]pyridines for suppressing toxic endoplasmic reticulum stress” (THE TRUSTEES OF COLUMBIA UNIVERSITY IN THE CITY OF NEW YORK, priority 2018, dated 2025).
# Where two headings read alike, the source gives them in different places.
# How the values were obtained:
# Assay in all cases: Radiolabeled ATP kinase assay, panel of 60 kinases (Table S5)
# Assay type in all cases: biochemical
# [1] = molecular target: T1, panel of 60 human kinases (Homo sapiens, UniProt Q96GD4); conditions: Aurora B; 0.1 μM; 10 μM ATP; read-out: % Enzyme Activity (relative to DSMO controls)
# T1 construct: purchased Reaction Biology Corp
# Outline: (§1)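 Cell-free radiolabeled-ATP kinase assays across a panel of 60 kinases; each compound tested at 0.1 μM and 0.5 μM for inhibition.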
# [2] = molecular target: T2, panel of 60 human kinases (Homo sapiens, UniProt P49760); conditions: CLK2; 0.1 μM; 10 μM ATP; read-out: % Enzyme Activity (relative to DSMO controls)
# T2 construct: purchased Reaction Biology Corp
# Outline: as §1
# [3] = molecular target: T3, panel of 60 human kinases (Homo sapiens, UniProt Q13627); conditions: DYRK/RK1A; 0.1 μM; 10 μM ATP; read-out: % Enzyme Activity (relative to DSMO controls)
# T3 construct: purchased Reaction Biology Corp
# Outline: as §1
# [4] = molecular target: T4, panel of 60 human kinases (Homo sapiens, UniProt Q13164); conditions: 0.1 μM, 10 μM ATP, read-out: % Enzyme Activity (relative to DSMO controls)
# T4 construct: purchased Reaction Biology Corp
# Outline: as §1
# [5] = molecular target: T5, panel of 60 human kinases (Homo sapiens, UniProt P45983); conditions: JNK1; 0.1 μM; 10 μM ATP; read-out: % Enzyme Activity (relative to DSMO controls)
# T5 construct: purchased Reaction Biology Corp
# Outline: as §1
# [6] = molecular target: T6, panel of 60 human kinases (Homo sapiens, UniProt O94921); conditions: CDK14/cyclin Y (PFTK1); 0.1 μM; 10 μM ATP; read-out: % Enzyme Activity (relative to DSMO controls)
# T6 construct: purchased Reaction Biology Corp
# Outline: as §1
# [7] = molecular target: T7, panel of 60 human kinases (Homo sapiens, UniProt P53779); conditions: JNK3; 0.1 μM; 10 μM ATP; read-out: % Enzyme Activity (relative to DSMO controls)
# T7 construct: purchased Reaction Biology Corp
# Outline: as §1
# [8] = molecular target: T8, panel of 60 human kinases (Homo sapiens, UniProt Q00535); conditions: 0.1 μM, 10 μM ATP, read-out: % Enzyme Activity (relative to DSMO controls)
# T8 construct: purchased Reaction Biology Corp
# Outline: as §1
# [9] = molecular target: T9, panel of 60 human kinases (Homo sapiens, UniProt Q8N4C8); conditions: MINK/MINK1; 0.1 μM; 10 μM ATP; read-out: % Enzyme Activity (relative to DSMO controls)
# T9 construct: purchased Reaction Biology Corp
# Outline: as §1
# [10] = molecular target: T10, panel of 60 human kinases (Homo sapiens, UniProt Q13470); conditions: TNK1; 0.1 μM; 10 μM ATP; read-out: % Enzyme Activity (relative to DSMO controls)
# T10 construct: purchased Reaction Biology Corp
# T10 sequence (Q13470 1-666): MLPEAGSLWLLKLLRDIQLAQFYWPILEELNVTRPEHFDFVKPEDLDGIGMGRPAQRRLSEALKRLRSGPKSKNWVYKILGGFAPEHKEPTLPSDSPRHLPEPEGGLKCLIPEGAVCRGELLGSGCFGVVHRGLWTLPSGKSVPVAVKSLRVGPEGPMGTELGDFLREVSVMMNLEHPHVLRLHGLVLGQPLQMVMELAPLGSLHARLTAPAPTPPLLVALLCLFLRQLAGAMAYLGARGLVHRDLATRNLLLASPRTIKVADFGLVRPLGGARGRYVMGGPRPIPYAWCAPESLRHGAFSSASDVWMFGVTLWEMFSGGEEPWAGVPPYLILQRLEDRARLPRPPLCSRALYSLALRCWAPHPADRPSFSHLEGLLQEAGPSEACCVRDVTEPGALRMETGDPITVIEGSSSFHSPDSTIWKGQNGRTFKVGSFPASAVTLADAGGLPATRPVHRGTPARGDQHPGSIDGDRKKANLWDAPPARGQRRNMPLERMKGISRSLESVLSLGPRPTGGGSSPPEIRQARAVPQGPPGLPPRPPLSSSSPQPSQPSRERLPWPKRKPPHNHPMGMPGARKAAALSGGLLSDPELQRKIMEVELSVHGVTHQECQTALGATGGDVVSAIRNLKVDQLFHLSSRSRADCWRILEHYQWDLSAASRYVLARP
# Outline: as §1
# [11] = molecular target: T11, panel of 60 human kinases (Homo sapiens, UniProt Q15139); conditions: PKCmu/PRKD1; 0.1 μM; 10 μM ATP; read-out: % Enzyme Activity (relative to DSMO controls)
# T11 construct: purchased Reaction Biology Corp
# T11 sequence (Q15139 1-912): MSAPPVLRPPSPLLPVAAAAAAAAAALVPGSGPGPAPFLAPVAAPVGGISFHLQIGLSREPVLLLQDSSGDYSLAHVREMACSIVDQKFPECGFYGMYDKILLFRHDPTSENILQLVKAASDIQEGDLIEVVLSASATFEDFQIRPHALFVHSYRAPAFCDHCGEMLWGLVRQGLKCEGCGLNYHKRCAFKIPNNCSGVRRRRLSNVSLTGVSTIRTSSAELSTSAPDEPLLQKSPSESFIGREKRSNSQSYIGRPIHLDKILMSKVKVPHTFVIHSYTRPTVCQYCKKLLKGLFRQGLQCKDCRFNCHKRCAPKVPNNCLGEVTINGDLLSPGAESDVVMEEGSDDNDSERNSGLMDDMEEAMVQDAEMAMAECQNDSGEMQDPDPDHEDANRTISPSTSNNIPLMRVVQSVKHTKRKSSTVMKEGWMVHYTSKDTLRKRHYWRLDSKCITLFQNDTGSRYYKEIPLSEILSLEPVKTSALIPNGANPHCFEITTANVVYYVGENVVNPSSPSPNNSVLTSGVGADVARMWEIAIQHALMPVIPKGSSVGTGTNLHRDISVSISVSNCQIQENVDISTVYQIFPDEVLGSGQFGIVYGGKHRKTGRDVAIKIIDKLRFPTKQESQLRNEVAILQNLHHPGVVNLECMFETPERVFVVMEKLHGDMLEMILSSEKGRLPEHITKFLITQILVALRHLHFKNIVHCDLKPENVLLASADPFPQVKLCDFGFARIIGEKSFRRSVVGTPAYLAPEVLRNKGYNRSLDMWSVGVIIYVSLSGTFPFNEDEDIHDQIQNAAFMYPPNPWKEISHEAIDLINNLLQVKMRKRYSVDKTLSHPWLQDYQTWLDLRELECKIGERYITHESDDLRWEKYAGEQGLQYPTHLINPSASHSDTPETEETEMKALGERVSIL
# Outline: as §1
# T4 sequence (Q13164 whole entry): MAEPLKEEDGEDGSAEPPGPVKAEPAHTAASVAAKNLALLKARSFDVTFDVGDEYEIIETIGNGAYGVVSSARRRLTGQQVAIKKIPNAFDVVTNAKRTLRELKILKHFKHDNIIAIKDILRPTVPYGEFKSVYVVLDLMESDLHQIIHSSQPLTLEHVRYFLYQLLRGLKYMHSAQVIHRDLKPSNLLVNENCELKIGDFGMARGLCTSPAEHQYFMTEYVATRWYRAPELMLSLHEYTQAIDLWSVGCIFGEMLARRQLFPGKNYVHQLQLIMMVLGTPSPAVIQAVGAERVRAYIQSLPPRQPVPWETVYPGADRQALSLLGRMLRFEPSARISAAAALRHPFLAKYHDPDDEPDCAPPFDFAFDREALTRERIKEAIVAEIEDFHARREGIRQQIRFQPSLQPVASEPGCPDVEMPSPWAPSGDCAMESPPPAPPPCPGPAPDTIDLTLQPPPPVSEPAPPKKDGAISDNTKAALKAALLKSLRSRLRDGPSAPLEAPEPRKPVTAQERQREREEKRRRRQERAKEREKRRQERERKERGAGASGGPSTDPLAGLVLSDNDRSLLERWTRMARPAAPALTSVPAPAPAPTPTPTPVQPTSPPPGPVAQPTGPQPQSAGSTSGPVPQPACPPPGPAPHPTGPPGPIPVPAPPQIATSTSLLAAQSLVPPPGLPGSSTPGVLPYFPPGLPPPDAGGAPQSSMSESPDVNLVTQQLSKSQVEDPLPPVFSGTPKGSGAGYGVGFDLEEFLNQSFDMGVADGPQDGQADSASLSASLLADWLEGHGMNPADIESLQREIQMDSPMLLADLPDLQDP
# T8 sequence (Q00535 whole entry): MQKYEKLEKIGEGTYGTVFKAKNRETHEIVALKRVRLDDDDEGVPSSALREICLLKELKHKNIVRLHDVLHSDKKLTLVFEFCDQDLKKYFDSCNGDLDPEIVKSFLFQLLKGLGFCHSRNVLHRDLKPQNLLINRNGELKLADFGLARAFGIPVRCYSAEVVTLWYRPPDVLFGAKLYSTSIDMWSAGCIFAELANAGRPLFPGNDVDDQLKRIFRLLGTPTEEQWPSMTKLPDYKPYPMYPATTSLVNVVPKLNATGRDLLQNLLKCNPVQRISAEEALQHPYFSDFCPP
# T7 sequence (P53779 whole entry): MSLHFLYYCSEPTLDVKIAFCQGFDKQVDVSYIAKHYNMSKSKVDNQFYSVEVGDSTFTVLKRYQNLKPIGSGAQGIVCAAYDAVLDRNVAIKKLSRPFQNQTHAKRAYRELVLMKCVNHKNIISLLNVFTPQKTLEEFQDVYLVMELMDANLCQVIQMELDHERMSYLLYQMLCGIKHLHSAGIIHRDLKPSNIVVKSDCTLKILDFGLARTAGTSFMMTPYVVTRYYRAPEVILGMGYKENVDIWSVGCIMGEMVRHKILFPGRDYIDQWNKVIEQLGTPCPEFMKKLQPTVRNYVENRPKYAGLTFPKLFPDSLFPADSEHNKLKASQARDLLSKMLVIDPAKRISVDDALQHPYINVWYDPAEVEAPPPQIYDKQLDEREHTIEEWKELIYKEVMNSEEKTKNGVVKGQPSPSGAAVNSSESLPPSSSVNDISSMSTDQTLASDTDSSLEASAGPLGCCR
# T1 sequence (Q96GD4 whole entry): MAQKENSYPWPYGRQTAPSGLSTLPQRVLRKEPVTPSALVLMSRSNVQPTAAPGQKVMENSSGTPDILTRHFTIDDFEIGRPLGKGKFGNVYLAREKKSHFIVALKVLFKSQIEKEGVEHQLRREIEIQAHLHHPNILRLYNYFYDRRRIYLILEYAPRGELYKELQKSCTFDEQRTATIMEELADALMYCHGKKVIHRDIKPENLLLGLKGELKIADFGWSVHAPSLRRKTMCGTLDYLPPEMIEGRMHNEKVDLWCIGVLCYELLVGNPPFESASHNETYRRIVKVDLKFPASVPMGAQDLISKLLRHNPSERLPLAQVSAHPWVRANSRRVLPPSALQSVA
# T9 sequence (Q8N4C8 whole entry): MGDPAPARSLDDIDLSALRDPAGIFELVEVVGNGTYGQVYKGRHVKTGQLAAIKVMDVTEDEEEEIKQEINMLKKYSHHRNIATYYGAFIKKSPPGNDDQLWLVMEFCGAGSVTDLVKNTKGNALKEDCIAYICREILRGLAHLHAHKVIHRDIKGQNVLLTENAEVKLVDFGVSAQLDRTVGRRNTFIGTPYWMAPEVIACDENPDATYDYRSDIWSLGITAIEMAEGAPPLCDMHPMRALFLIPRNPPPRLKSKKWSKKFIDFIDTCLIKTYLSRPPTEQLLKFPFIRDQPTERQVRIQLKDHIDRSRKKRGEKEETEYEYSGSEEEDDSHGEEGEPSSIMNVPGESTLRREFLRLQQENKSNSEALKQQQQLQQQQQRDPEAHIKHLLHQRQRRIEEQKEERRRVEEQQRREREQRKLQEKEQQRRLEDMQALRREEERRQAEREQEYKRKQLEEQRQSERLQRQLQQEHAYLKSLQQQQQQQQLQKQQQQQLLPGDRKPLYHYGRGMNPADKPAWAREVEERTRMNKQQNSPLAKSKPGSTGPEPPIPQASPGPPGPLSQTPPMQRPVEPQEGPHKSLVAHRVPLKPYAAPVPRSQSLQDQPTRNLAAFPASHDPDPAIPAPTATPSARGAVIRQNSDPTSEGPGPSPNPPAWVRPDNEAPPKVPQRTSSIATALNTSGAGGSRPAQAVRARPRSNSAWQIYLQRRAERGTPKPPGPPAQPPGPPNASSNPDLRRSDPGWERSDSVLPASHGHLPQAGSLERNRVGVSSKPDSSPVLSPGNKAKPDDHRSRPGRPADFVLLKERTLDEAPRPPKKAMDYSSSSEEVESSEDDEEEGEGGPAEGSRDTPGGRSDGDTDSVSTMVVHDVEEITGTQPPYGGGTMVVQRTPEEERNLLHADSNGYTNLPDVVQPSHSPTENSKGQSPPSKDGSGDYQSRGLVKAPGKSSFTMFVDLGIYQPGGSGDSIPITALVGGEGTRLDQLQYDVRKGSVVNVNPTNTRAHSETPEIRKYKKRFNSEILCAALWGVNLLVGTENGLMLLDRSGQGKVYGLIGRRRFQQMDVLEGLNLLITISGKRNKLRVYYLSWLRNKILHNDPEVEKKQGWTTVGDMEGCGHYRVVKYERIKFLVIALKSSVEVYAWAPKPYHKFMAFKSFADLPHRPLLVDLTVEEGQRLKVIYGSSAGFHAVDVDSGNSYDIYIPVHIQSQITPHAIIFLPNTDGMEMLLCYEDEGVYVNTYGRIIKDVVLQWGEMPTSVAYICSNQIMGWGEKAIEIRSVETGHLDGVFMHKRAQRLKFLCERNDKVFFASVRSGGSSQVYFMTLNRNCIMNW
# T2 sequence (P49760 whole entry): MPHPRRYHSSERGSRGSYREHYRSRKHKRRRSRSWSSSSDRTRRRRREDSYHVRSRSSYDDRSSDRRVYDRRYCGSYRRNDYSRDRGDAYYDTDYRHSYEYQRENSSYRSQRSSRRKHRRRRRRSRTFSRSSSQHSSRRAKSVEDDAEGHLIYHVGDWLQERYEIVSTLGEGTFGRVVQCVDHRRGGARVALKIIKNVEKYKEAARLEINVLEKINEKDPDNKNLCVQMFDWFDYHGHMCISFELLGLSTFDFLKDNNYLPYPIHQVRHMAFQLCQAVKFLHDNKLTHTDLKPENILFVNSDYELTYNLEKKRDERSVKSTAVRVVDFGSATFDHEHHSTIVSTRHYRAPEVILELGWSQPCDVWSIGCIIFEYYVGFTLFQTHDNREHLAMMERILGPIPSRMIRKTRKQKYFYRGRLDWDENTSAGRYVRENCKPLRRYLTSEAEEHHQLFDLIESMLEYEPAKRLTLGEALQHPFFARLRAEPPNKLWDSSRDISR
# T6 sequence (O94921 whole entry): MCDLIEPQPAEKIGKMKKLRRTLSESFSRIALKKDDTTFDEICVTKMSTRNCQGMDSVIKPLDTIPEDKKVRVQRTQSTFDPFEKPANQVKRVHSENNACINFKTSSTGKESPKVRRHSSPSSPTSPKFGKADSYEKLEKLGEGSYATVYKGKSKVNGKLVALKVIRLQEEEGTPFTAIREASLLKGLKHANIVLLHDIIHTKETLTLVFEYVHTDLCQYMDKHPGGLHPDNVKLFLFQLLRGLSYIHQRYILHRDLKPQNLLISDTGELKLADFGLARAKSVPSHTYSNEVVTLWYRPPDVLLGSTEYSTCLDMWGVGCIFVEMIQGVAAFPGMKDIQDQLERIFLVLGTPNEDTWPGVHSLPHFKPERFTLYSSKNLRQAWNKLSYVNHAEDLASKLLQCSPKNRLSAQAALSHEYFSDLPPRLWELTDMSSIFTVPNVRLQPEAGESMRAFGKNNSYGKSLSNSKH
# T5 sequence (P45983 whole entry): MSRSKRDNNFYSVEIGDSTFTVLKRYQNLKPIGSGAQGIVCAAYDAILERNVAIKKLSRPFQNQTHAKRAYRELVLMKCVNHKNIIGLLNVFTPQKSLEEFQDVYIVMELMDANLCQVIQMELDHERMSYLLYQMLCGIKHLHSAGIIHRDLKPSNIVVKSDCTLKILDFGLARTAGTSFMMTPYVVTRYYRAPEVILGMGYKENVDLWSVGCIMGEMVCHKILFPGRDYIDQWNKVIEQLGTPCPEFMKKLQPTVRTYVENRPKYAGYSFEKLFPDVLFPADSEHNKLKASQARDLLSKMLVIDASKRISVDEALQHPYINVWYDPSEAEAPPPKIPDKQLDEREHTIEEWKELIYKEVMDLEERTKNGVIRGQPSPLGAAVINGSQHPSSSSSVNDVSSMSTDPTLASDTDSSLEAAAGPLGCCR
Compound,remaining activity at 0.1 µM [1] [%],remaining activity at 0.1 µM [2] [%],remaining activity at 0.1 µM [3] [%],remaining activity at 0.1 µM ([4]; ERK5/MAPK7 (CD)) [%],remaining activity at 0.1 µM ([4]; ERK5/MAPK7) [%],remaining activity at 0.1 µM [5] [%],remaining activity at 0.1 µM [6] [%],remaining activity at 0.1 µM [7] [%],remaining activity at 0.1 µM ([8]; CDK5/p25) [%],remaining activity at 0.1 µM ([8]; CDK5/p35) [%],remaining activity at 0.1 µM [9] [%],remaining activity at 0.1 µM [10] [%],remaining activity at 0.1 µM [11] [%]
"CN1CCN(Cc2ccc(-c3cnc4[nH]cc(-c5ccc6c(c5)OCCO6)c4c3)cc2)CC1 [Compound 7d, 3-(2,3-Dihydrobenzo[b][1,4]dioxin-6-yl)-5-(4-((4-methylpiperazin-1-yl)methyl)phenyl)-1H-pyrrolo[2,3-b]pyridine]",83.5,2.71,3.15,87.5,96.8,52.2,66.3,120,16.4,14.2,6.69,44.3,4.34
"CN1CCN(Cc2ccc(-c3cnc4[nH]cc(-c5ccccc5Cl)c4c3)cc2)CC1 [Compound 7as, 3-(2-Chlorophenyl)-5-(4-((4-methylpiperazin-1-yl)methyl)phenyl)-1H-pyrrolo[2,3-b]pyridine]",82.5,22.5,42,51.2,107,74.6,85,111,48.6,36,0.19,33.9,9.63
